Experimental data published in patent publication US20120052555A1, “ENRICHMENT OF LISTERIA SPP” (SAMSUNG TECHWIN CO., LTD., priority 2010, published 2012).
“Also recorded” adds a separate entry of the source.

Experiments:
[1] = tested on: heat-injured Listeria monocytogenes; experiment: Recovery of sub-lethally heat-injured Listeria cells on Minimal Medium A1 agar; assay type: cell-based; details: cells heated 50° C. 10 minutes; for effect in recovering heat-injured Listeria spp.: Minimal Medium supplemented with the agent
Protocol: Most Listeria infection cases are associated with pasteurized dairy products. Therefore, the effects of the Minimal Medium A1 on the recovery of sub-lethally heat-injured Listeria spp. were investigated. Overnight-cultured Listeria monocytogenes was serially diluted by 10 folds with PBS. 1 mL of the culture suspension (about 3780 CFU) was cultured at 50° C. for 10 minutes, and 0.1 mL of the culture product was inoculated on the Minimal Medium A1 in agar plate (1.5% agar) in the presence or non-presence of selective agents.
FIG. 4 is a graph illustrating the effects of medium ingredients on the recovery of heat-injured Listeria spp. […] In FIG. 4, “Pyruvate” indicates a Minimal Medium A1 supplemented with sodium pyruvate, “A1-NONE” indicates a Minimal Medium A1 supplemented with none, and “BHI-NONE” indicates a brain heart infusion medium supplemented with none. “Acriflavine,” “Nalidixic acid,” “Polymyxin B,” “Ceftazidime” and “All” denote Minimal Media A supplemented with […], 40 mg/L of nalidixic acid, 10 mg/L of polymyxin B, 40 mg/L of ceftazidime, and all of these antibiotics, respectively.

[2] = tested on: L. grayi strains; experiment: Culture of five L. grayi strains in the presence of antibiotics; assay type: cell-based, Listeria grayi; details: 35° C. in Minimal Media A1; 10 mg/L acriflavine, 40 mg/L nalidixic acid, 10 mg/L polymyxin B, 40 mg/L ceftazidime
Protocol: Separately, five L. grayi strains were cultured at 35° C. in the Minimal Media A1 supplemented separately with 10 mg/L of acriflavine, 40 mg/L of nalidixic acid, 10 mg/L of polymyxin B, 40 mg/L of ceftazidime, and a combination thereof. As a result, the effects of each antibiotic on the growth of L. grayi were trivial. […] The two strains reached maximum cell densities within about 24 hours.

[3] = tested on: background microflora; experiment: Effects of antibiotics on background microflora of ground beef (aerobic plate counts); assay type: cell-based; details: 10 g/L ground beef, 35° C., Minimal Media A; among the four antibiotics
Protocol: In addition, effects of antibiotics on background microflora were investigated. First, 10 g/L of ground beef was cultured at 35° C. in the Minimal Media A supplemented separately with 10 mg/L of acriflavine, 40 mg/L of nalidixic acid, 10 mg/L of polymyxin B, 40 mg/L of ceftazidime, and a combination thereof. The cell concentrations before and after culture were determined based on aerobic plate counts. The aerobic plate counts were determined by inoculating 100 μL of the culture products into Difco® Plate Count agar medium, culturing the mixture at 35° C. for 24 hours, and counting cell colonies
FIG. 3 is a graph illustrating the effects of antibiotics on background microflora. Referring to FIG. 3, the growth of the background microfluora was inhibited about 100 times more strongly when the four antibiotics were added together, than when they were used individually.

[4] = tested on: Listeria monocytogenes; experiment: Effect of LiCl concentration in Minimal Medium A1 on cell growth (PCR Cp); assay type: cell-based; details: LiCl 1, 3, 5, 7, 9 or 10 g/L in Minimal Medium A1
Protocol: 300 μL of overnight cultures (about of 3×10^9 CFU/ml) of Listeria monocytogenes in a brain hear infusion (BHI) medium was added into 30 mL of each of the pre-warmed media in 250 ml glass flask. Each mixture was cultured without shaking at 35° C. for 24 hours. Aliquots (20 μL) of the culture products were collected from each container after culture for 1, 2, 3, 4, 5, 6, 7, 8, 9 and 24 hours, respectively. Each culture product was treated with a TZ lysis buffer with 1 mg/ml proteinase K, and incubated at 55° C. for 15 min, 95° C. for 10 min, and cooled at 4° C. for 2 min. Cell lysates were added into the PCR mixture for real-time PCR. The PCR mixture contained forward and reverse primers of SEQ ID NOs. 5 and 6, the probe of SEQ ID No. 7, and the RNase H. The primers and probe were specific to the InlA gene of L. monocytogenes. The 5′ and 3′ ends of the probe were labeled with FAM and Iowa BFQ ([…]), respectively.
The PCR conditions were as follows: UNG activation at 37° C. for 600 seconds; Denaturation at 95° C. for 600 seconds; Denaturation at 95° C. for 15 seconds; and annealing and elongation at 60° C. for 20 seconds (50 cycles). […]

| Compound | effect in recovering heat-injured Listeria spp. [1] | effect on the growth of L. grayi [2] | recovery rate of heat-injured Listeria spp. ([1]; 10 g/L of sodium pyruvate compared to 10 mM of MgCl2) | inhibitory effect on cell growth of background microflora [3] | effect of LiCl concentration on Cp values / cell growth [4] |
| --- | --- | --- | --- | --- | --- |
| polymyxin B | positive effects | trivial | – | – | – |
| acriflavine | positive effects | trivial | – | – | – |
| CC(=O)C(=O)[O-].[Na+] [sodium pyruvate] | positive effects | – | recovery rate was improved | – | – |
| CCn1cc(C(=O)O)c(=O)c2ccc(C)nc21 [nalidixic acid] | – | trivial | – | strongest inhibitory effect on cell growth | – |
| CC(C)(O/N=C(\C(=O)N[C@@H]1C(=O)N2C(C(=O)[O-])=C(C[n+]3ccccc3)CS[C@H]12)c1csc(N)n1)C(=O)O [ceftazidime] | positive effects | trivial | – | – | – |
| [Cl-].[Li+] [LiCl, lithium chloride] | – | – | – | – | high LiCl concentration helped recovery of Listeria; also recorded: the smaller the Cp values and the more the cell growth was enhanced |
